# Data from ChEMBL document CHEMBL4152333, “Structure-activity relationships in fungal nucleobases transporters as dissected by the inhibitory effects of novel purine analogues” (Eur J Med Chem, 2018).
# The source made the active and inactive calls. No cut-off for these calls is given here.
# How the values were obtained:
# Fungi [1] = experiment: Inhibition of fungal FcyB expressed in Aspergillus nidulans assessed as reduction in FcyB-mediated at 0.5 mM
# [2] = target: Uric acid-xanthine permease (Emericella nidulans (strain FGSC A4 / ATCC 38163 / CBS 112.46 / NRRL194 / M139) (Aspergillus nidulans)) (UniProt Q07307); experiment: Inhibition of fungal UapA expressed in Aspergillus nidulans assessed as reduction in UapA-mediated [8-3H]-xanthine accumulation at 0.5 mM; conditions: Fungi
# [3] = Inhibition of fungal FcyB expressed in Aspergillus nidulans assessed as reduction in FcyB-mediated [2,8-3H]-adenine accumulation; design: species or system Fungi
# [4] = target: T1, Uncharacterized protein (Emericella nidulans (strain FGSC A4 / ATCC 38163 / CBS 112.46 / NRRL194 / M139) (Aspergillus nidulans)) (UniProt G5EB00); experiment: Inhibition of fungal AzgA expressed in Aspergillus nidulans assessed as reduction in AzgA-mediated [2,8-3H]-adenine accumulation at 0.5 mM; conditions: Fungi
# T1 sequence (whole entry): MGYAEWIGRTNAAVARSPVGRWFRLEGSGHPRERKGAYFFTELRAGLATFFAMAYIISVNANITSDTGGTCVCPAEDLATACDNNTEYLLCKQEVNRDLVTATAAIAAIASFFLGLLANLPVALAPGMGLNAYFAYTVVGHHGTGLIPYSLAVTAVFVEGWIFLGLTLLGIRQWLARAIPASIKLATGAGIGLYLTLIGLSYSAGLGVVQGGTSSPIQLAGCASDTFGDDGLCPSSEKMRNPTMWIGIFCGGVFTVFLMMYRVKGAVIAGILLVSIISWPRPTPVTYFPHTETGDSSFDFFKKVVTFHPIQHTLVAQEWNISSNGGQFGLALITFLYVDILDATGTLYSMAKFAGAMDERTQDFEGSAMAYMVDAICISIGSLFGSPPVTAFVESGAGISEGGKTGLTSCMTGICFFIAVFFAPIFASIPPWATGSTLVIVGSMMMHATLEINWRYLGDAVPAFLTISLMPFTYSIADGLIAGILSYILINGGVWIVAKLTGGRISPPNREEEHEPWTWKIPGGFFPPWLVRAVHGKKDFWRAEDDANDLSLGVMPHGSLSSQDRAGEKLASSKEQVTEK
# Fungi [5] = experiment: Inhibition of fungal FcyB expressed in Aspergillus nidulans assessed as FcyB-mediated [2,8-3H]-adenine accumulation rate at 500 uM relative to untreated control; design: scale not given: the % may be the effect or the level left
# Uncharacterized protein = target: T2, Uncharacterized protein (Emericella nidulans (strain FGSC A4 / ATCC 38163 / CBS 112.46 / NRRL194 / M139) (Aspergillus nidulans), UniProt G5EB00); experiment: Inhibition of fungal AzgA expressed in Aspergillus nidulans assessed as reduction in AzgA-mediated [2,8-3H]-adenine accumulation; design: species or system Fungi
# T2 sequence (G5EB00 whole entry): T1 sequence (whole entry)
# Sequence of Uric acid-xanthine permease (Emericella nidulans (strain FGSC A4 / ATCC 38163 / CBS 112.46 / NRRL194 / M139) (Aspergillus nidulans)) (Q07307 whole entry, looked up): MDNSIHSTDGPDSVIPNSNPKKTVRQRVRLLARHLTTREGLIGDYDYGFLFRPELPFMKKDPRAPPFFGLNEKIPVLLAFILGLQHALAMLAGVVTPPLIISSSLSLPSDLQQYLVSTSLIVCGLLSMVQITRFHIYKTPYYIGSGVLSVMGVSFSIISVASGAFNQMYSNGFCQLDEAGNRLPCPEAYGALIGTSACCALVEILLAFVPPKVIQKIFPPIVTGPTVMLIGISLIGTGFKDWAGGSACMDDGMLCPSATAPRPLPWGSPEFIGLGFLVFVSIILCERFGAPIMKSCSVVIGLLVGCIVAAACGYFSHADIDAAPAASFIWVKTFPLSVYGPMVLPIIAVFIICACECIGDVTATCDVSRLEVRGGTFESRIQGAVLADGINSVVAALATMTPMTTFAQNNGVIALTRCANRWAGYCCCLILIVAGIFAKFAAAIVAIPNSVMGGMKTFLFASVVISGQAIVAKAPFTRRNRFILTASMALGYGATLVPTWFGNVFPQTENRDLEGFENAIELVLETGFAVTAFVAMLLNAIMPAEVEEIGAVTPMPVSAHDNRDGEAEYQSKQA
SMILES,inhibition [2],Ki [3],other results
CN1CCN(c2nccc3c2ncn3C2CCCC2)CC1,,38 µM,
O=c1[nH]cnc2nc[nH]c12 [HYPOXANTHINE],,11 µM,
Oc1nc2c(NCc3ccccc3)nccc2[nH]1,inactive,74 µM,
CN1CCN(c2nccc3[nH]c(S)nc23)CC1,inactive,,
CN1CCN(c2nccc3[nH]c(O)nc23)CC1,inactive,19 µM,Activity (Fungi [5]): < 10%
CN1CCN(c2nccc3c2nc(-c2ccccc2O)n3Cc2ccccc2O)CC1,inactive,,inhibition (Fungi [1]): inactive
COc1ccc(OC)c(-c2nc3c(N4CCN(C)CC4)nccc3[nH]2)c1,inactive,100 µM,Activity (Fungi [5]): < 10%
CN1CCN(c2nccc3[nH]c(-c4ccccc4O)nc23)CC1,inactive,49 µM,Activity (Fungi [5]): < 10%
CC(C)n1cnc2c(NCc3ccccc3)nccc21,,5 µM,
CN1CCN(c2nccc3[nH]c(-c4ccc([N+](=O)[O-])cc4)nc23)CC1,inactive,106 µM,inhibition [4]: Active
Nc1[nH]cnc2ncnc1-2 [ADENINE],,7 µM,
CN1CCN(c2nccc3[nH]c(-c4ccncc4)nc23)CC1,inactive,,

# Now from value to molecule, other results behind:
inhibition [2],Ki [3],SMILES,other results
inactive,,Nc1ccnc2c1nc(S)n2Cc1ccccc1,inhibition (Fungi [1]): inactive
inactive,,O=[N+]([O-])c1ccc(-c2nc3c(NCc4ccccc4)nccc3[nH]2)cc1,
inactive,,CN1CCN(c2nccc3c2nc(-c2ccncc2)n3Cc2ccncc2)CC1,
inactive,42 µM,COc1ccc(OC)c(-c2nc3c(NCc4ccccc4)nccc3[nH]2)c1,inhibition [4]: Active; Activity (Fungi [5]): < 10%
inactive,,Nc1ccnc2c1nc(-c1ccc([N+](=O)[O-])cc1)n2Cc1ccccc1,inhibition (Fungi [1]): inactive
inactive,,Sc1nc2c(NCc3ccccc3)nccc2[nH]1,
inactive,,COc1ccc(OC)c(-c2nc3c(N)ccnc3n2Cc2ccccc2)c1,inhibition (Fungi [1]): inactive
inactive,72 µM,c1ccc(CNc2nccc3[nH]c(-c4ccncc4)nc23)cc1,inhibition [4]: Active; Activity (Fungi [5]): < 10%
inactive,82 µM,Oc1ccccc1-c1nc2c(NCc3ccccc3)nccc2[nH]1,inhibition [4]: Active; Activity (Fungi [5]): < 10%; Ki (Uncharacterized protein): 58 µM
inactive,,Nc1ccnc2c1nc(O)n2Cc1ccccc1,inhibition (Fungi [1]): inactive
inactive,,Nc1ccnc2c1nc(-c1ccncc1)n2Cc1ccccc1,inhibition (Fungi [1]): inactive
inactive,,Nc1ccnc2c1nc(-c1ccccc1O)n2Cc1ccccc1,inhibition (Fungi [1]): inactive
